Results published in ChEMBL document CHEMBL1158060, “Taspine: bioactivity-guided isolation and molecular ligand-target insight of a potent acetylcholinesterase inhibitor from Magnolia x soulangiana” (J Nat Prod, 2006).

What was measured:
Acetylcholinesterase [1] = target: Acetylcholinesterase (Electrophorus electricus, UniProt O42275)
Acetylcholinesterase [2] = target: Acetylcholinesterase (Homo sapiens, UniProt P22303)
Description: Inhibition of human AChE by Ellman's assay

Cholinesterase = Cholinesterase (Equus caballus, UniProt P81908)
Chain of Cholinesterase (P81908 whole entry): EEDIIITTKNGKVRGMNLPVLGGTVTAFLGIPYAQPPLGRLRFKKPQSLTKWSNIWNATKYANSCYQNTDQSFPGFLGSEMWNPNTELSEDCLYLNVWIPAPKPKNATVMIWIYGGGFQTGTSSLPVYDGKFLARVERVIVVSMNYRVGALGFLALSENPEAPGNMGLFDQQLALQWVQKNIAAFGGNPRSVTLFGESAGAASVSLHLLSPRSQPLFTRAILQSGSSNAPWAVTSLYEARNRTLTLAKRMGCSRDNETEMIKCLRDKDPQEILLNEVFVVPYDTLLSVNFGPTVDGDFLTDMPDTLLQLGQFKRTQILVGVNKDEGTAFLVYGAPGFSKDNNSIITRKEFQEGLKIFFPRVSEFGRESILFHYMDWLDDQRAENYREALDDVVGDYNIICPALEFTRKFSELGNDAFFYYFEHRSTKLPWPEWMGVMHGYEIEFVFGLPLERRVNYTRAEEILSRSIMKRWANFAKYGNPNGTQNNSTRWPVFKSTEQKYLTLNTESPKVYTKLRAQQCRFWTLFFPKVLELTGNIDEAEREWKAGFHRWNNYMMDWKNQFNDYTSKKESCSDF
Description: Inhibition of horse serum BuChE by Ellman's method

Chain of Acetylcholinesterase (Electrophorus electricus, UniProt O42275) (O42275 whole entry): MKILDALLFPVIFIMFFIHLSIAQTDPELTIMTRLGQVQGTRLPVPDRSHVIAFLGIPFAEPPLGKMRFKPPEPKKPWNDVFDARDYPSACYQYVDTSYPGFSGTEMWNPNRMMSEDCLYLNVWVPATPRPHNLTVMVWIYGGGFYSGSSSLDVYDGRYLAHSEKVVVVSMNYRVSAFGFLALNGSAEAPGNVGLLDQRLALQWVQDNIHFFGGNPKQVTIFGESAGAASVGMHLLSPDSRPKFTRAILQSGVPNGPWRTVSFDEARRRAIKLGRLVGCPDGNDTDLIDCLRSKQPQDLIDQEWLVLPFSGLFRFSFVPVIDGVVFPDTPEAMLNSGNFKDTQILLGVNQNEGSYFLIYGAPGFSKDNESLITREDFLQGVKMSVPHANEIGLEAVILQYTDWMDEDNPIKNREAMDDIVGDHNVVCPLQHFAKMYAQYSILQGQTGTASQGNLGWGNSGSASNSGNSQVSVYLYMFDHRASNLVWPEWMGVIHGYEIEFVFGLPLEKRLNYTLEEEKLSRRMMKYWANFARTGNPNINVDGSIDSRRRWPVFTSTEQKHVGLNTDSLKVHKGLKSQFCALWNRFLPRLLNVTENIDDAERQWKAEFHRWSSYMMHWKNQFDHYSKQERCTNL
Chain of Acetylcholinesterase (Homo sapiens, UniProt P22303) (P22303 whole entry): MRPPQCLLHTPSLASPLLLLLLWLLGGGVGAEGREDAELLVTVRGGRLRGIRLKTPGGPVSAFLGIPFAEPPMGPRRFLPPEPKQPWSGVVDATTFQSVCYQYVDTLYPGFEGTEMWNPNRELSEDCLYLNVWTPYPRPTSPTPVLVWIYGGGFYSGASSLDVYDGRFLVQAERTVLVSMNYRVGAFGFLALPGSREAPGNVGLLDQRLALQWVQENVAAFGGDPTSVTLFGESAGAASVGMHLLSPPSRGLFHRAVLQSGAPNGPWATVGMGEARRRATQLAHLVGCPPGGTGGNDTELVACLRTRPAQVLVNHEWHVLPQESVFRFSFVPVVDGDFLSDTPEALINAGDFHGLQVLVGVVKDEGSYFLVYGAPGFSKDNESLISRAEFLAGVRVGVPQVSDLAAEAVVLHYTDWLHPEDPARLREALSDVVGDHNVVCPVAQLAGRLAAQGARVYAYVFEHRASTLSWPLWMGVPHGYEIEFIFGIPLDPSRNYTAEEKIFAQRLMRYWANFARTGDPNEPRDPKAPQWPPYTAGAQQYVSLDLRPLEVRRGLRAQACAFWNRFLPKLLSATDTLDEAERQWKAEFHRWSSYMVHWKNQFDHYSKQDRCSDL

| Structure (SMILES) | IC50 (Acetylcholinesterase [1]) | IC50 (Acetylcholinesterase [2]) | IC50 (Cholinesterase) |
| --- | --- | --- | --- |
| COc1c(O)cc2c3c1-c1ccccc1C[C@H]3NCC2 [(-)-ASIMILOBINE] | > 100 µM | > 100 µM | > 100 µM |
| COc1ccc2c(=O)oc3c(OC)cc(CCN(C)C)c4c(=O)oc1c2c34 [TASPINE] | 0.33 µM | 0.54 µM | > 100 µM |
